# Patent US20230181542A1, “METHOD AND PHARMACEUTICAL COMPOSITION FOR TREATING CHRONIC KIDNEY DISEASE” (Chengdu WenDing Technology Development Co., Ltd., priority 2020, published 2023)
# Where “and” joins values, the source holds several entries; their conditions need not be identical. Equal values may be shown once.
# Tests used:
# [1] = marketed drug, known side effects; cited from earlier work
# [2] = tested on: rhesus monkeys with spontaneous chronic diabetic kidney disease; assay: Proteinuria (UACR, urinary Malb and Cr-U), 4 to 6 hour urine collection; type: in vivo, Macaca mulatta (Rhesus Macaque); conditions: for UACR: Valsartan group 2.67 mg/kg oral, individual animals and Mean ± SD (baseline 61 ± 33); for UACR change rate / UACR decreased by an average of (compared with the baseline) / Malb / Cr-U: Valsartan group; for UACR change rate: individual animals and Mean ± SD, negative = decrease; for Malb: individual animals and Mean ± SD (baseline 76.1 ± 114.7); for Cr-U: individual animals and Mean ± SD (baseline 90.9 ± 108.5)
# Experimental: The details of the dosing regime of each group are described below, wherein the route of administration was oral administration. The baseline period was 1 month, followed by continuous oral administration for 58 days. […] Urinary albumin excretion rate (UACR): 4 h to 6 hours urine was collected and detected for urinary microalbumin (Malb) and urinary creatinine (Cr-U), followed by calculation of UACR value. Detection was performed one time before administration, and at designated times (such as once at D30 and once at […]) after administration. UACR=Malb/Cr-U. Urine sample collection method: Animals were fasted overnight before the operation of collecting urine. On the day of operation, animals were transferred to a metabolic cage, followed by collecting all urine excreted within 4 to 6 hours into a urine collection bag. Detection method: see Tables 3-2 and 3-3 Effects on urinary albumin excretion rate (UACR) are shown in FIG. 1, FIG. 2 and Table 4-1. […]
# [3] = tested on: rhesus monkeys with spontaneous chronic diabetic kidney disease; assay: Glomerular filtration rate eGFR calculated from Cr-P and CysC; type: in vivo, Macaca mulatta (Rhesus Macaque); conditions: for eGFR change value: animals with eGFR 30 to 59, DOX+PMP+MTP groups 1# and 2# combined n = 5, Valsartan n = 3, Mean ± SD; for eGFR: Valsartan group, Mean ± SD (baseline 50 ± 7)
# Experimental: (§1) The details of the dosing regime of each group are described below, wherein the route of administration was oral administration. The baseline period was 1 month, followed by continuous oral administration for 58 days.
# Glomerular filtration rate eGFR: creatinine (Cr-P), blood urea nitrogen (BUN), cystatin (CysC) were detected to calculate the eGFR value. Detections were performed once in the baseline period before administration, and at designated times (such as D14, D28, D45, and D58, etc.) after administration. In accordance with reference literature (Levey A S, Stevens L A, Schmid C H et al. A new equation to estimate glomerular filtration rate. Ann Intern Med 2009; 150:604-612), the formula for calculating eGFR was as follows: […]
# Blood sample collection method: Before the blood collection operation, an animal was fasted overnight without anesthesia. After the animals were acclimatized, the backboard was gently squeezed to restrain the animal, and blood was collected through the forearm vein. After collection, sterilized dry cotton ball was used to gently press the blood collection site to stop bleeding.
# Results of eGFR are shown in FIG. 3, Table 4-2 and Table 4-3. eGFR values of 30 to 59 ml/min/1.73m^2 were selected and included to analyze the changes of glomerular filtration rate.
# [4] = tested on: rhesus monkeys with spontaneous chronic diabetic kidney disease; assay: Renal function markers CysC, Cr-P and BUN in blood; type: in vivo, Macaca mulatta (Rhesus Macaque); conditions: Valsartan group; for CysC: Mean ± SD (baseline 1.57 ± 0.10)
# Experimental: The details of the dosing regime of each group are described below, wherein the route of administration was oral administration. The baseline period was 1 month, followed by continuous oral administration for 58 days. Glomerular filtration rate eGFR: creatinine (Cr-P), blood urea nitrogen (BUN), cystatin (CysC) were detected to calculate the eGFR value. Detections were performed once in the baseline period before administration, and at designated times (such as D14, D28, […], and […], etc.) after administration. In accordance with reference literature (Levey A S, Stevens L A, Schmid C H et al. A new equation to estimate glomerular filtration rate. Ann Intern Med 2009; 150:604-612), the formula for calculating eGFR was as follows: Blood sample collection method: Before the blood collection operation, an animal was fasted overnight without anesthesia. After the animals were acclimatized, the backboard was gently squeezed to restrain the animal, and blood was collected through the forearm vein. After collection, sterilized dry cotton ball was used to gently press the blood collection site to stop bleeding. [table] CysC is an endogenous marker that reflects changes in glomerular filtration rate. Cr-P has been used as the main index of renal function for more than 40 years. In this test, glomerular filtration rate eGFR is calculate by measuring CysC and Cr-P. Although BUN was first used as an evaluation index of renal function, it could not meet the requirements of endogenous GFR markers and was only used as an auxiliary index in this test.
# [5] = tested on: rhesus monkeys with spontaneous chronic diabetic kidney disease; assay: Blood pressure (SBP/DBP) after anesthesia; type: in vivo, Macaca mulatta (Rhesus Macaque); conditions: Valsartan group
# Experimental: as §1
# Blood pressure: blood pressure was detected after anesthesia, including systolic blood pressure (SBP), diastolic blood pressure (DBP), mean blood pressure (MBP) and heart rate (HR). Detection was carried out 1 time before administration and 1 time at D58 (end of administration).
# Detection method: Animals were anesthetized by intramuscular injection of 15 mg/kg ketamine hydrochloride and then placed in a supine position, followed by being tied with a cuff of appropriate size according to the corresponding standard. A blood oxygen probe was clamped on a finger or toe (except the left hand) of the animal, with the red photosensitive surface on the side of the finger pad. The blood pressure of the animal was continuously detected 3 times in automatic mode with an interval of 1 minute. If the differences in the SBP, DBP and MBP of the three times were less than 15 mmHg, the measurement completed, otherwise the measurement repeated.
# Detection indicators: systolic blood pressure (SBP), diastolic blood pressure (DBP), mean blood pressure (MBP) and heart rate (HR).
# Instrument: GE B40i electrophysiological monitor.
compound,measurement,setting,value
"CCCN[C@H]1CCc2nc(N)sc2C1 [PMP, (S)-N6-propyl-4,5,6,7-tetrahydro-1,3-benzothiazole-2,6-diamine]",daily dose at which the incidence of somnolence increases,[1],above 1.5 mg
CCCCC(=O)N(Cc1ccc(-c2ccccc2-c2nnn[nH]2)cc1)[C@H](C(=O)O)C(C)C [Valsartan],UACR,[2]; D 30,59 mg/g and 84 mg/g and 20 mg/g and 21 mg/g and 46 ± 31 mg/g
same,UACR,[2]; D 58,38 mg/g and 64 mg/g and 19 mg/g and 22 mg/g and 36 ± 20 mg/g
same,UACR change rate,[2]; Baseline-D 30,−27.11% and −14.25% and −33.78% and −42.53% and −29.41 ± 11.92%
same,UACR change rate,[2]; Baseline-D 58,−52.26% and −34.73% (2×) and −41.10% and −40.71 ± 8.27%
same,UACR decreased by an average of (compared with the baseline),[2]; D30,about 30%
same,Malb,[2]; D 30,51.3 mg/L and 199.8 mg/L and 13.4 mg/L and 5.9 mg/L and 67.6 ± 90.3 mg/L
same,Cr-U,[2]; D 30,87.5 mg/dL and 238.1 mg/dL and 68.3 mg/dL and 27.5 mg/dL and 105.3 ± 92.0 mg/dL
same,Malb,[2]; D 58,54.9 mg/L and 206.7 mg/L and 39.9 mg/L and 6.2 mg/L and 76.9 ± 88.9 mg/L
same,Cr-U,[2]; D 58,143.0 mg/dL and 323.6 mg/dL and 206.3 mg/dL and 28.2 mg/dL and 175.3 ± 123.4 mg/dL
same,UACR decreased by an average of (compared with the baseline),"[2]; D58, p<0.01 vs placebo",40.71±8.27%
same,eGFR change value,[3]; D 14 minus baseline,3 ± 2 ml/min/1.73 m^2
same,eGFR change value,[3]; D 28 minus baseline,6 ± 7 ml/min/1.73 m^2
same,eGFR change value,[3]; D 45 minus baseline,5 ± 6 ml/min/1.73 m^2
same,eGFR change value,[3]; D 58 minus baseline,10±7 ml/min/1.73 m^2
same,eGFR,[3]; D 14,53 ± 7 ml/min/1.73 m^2
same,eGFR,[3]; D 28,56 ± 2 ml/min/1.73 m^2
same,eGFR,[3]; D 45,55 ± 1 ml/min/1.73 m^2
same,eGFR,[3]; D 58,60 ± 1 ml/min/1.73 m^2
same,CR-P,[4]; D 14 (baseline 1.46 ± 0.29),1.26 ± 0.24 mg/dL
same,BUN,[4]; D 14 (baseline 41.9 ± 34.2),27.1 ± 6.0 mg/dL
same,CysC,[4]; D 14,1.59 ± 0.10 mg/L
same,CR-P,[4]; D 28 (baseline 1.46 ± 0.29),1.18 ± 0.13 mg/dL
same,BUN,[4]; D 28 (baseline 41.9 ± 34.2),35.0 ± 16.6 mg/dL
same,CysC,[4]; D 28,1.53 ± 0.08 mg/L
same,CR-P,[4]; D 45 (baseline 1.46 ± 0.29),1.18 ± 0.12 mg/dL
same,BUN,[4]; D 45 (baseline 41.9 ± 34.2),37.9 ± 19.2 mg/dL
same,CysC,[4]; D 45,1.56 ± 0.09 mg/L
same,CR-P,[4]; D 58 (baseline 1.46 ± 0.29),1.10 ± 0.08 mg/dL
same,BUN,[4]; D 58 (baseline 41.9 ± 34.2),31.6 ± 11.3 mg/dL
same,CysC,[4]; D 58,1.48 ± 0.11 mg/L
same,DBP,"[5]; D 58, Mean ± SD (baseline 71 ± 15)",63 ± 11 mmHg
same,SBP,"[5]; D 58, Mean ± SD (baseline 135 ± 16)",123 ± 12 mmHg
same,DBP decreased by an average of (compared with the baseline),"[5]; D58, p<0.01 vs placebo",8±6 mmHg
same,SBP decreased by an average of (compared with the baseline),"[5]; D58, p<0.05 vs placebo",13±6 mmHg
same,DBP change value,"[5]; D 58 vs baseline, Mean ± SD",−8 ± 5 mmHg
same,SBP change value,"[5]; D 58 vs baseline, Mean ± SD",−13 ± 6 mmHg
